How the values were obtained:
[1] = tested on: multidrug-resistant Colo 320 colonic adenocarcinoma cells expressing the ABCB1 transporter; assay: Checkerboard combination assay with doxorubicin; assay type: cell-based, human
Protocol: A checkerboard microplate method was applied to study the effect of drug interactions between the compounds and doxorubicin. The assay was carried out using multidrug-resistant Colo 320 colonic adenocarcinoma cells expressing the ABCB1 transporter. The final concentration of the chemotherapeutic agent doxorubicin used in the combination experiment was chosen in accordance with their antiproliferative activity previously determined. The dilutions of the chemotherapeutic drug were made in a horizontal direction in 100 μL, and the dilutions of the compounds vertically in the microtitre plate in 50 μL volume. The cells were re-suspended in culture medium and distributed into each well in 50 μL containing 6 × 10^3 cells each. The plates were incubated for 72 h at 37 °C in 5% CO2 atmosphere. The cell growth rate was determined after MTT staining. At the end of the incubation period, 20 μL of MTT (thiazolyl blue tetrazolium bromide, Sigma) solution (from a stock solution of 5 mg/mL) was added to each well. After incubation at 37 °C for 4 h, 100 μL of SDS (Sigma-Aldrich, St. Louis, MO, USA) solution (10% in 0.01 M HCl; Merck, Darmstadt, Germany) were added to each well and the plates were further incubated at 37 °C overnight. OD was measured at 540/630 nm with Multiscan EX ELISA reader (Thermo Labsystems, Cheshire, WA). Combination index (CI) values at 50% of the growth inhibition dose (ED50), were determined using CompuSyn software (ComboSyn, Inc., Paramus, NJ) to plot four to five data points to each ratio.

[2] = MTT cytotoxicity assay (24 h), MRC-5; assay type: cell-based; details: human, MRC-5 embryonal lung fibroblast cells, 24 h incubation
Protocol: (§1) MRC-5 human embryonal lung fibroblast cell lines (ATCC CCL-171) were purchased from LGC Promochem, Teddington, UK. The cell line was cultured in Eagle’s Minimal Essential Medium (EMEM, containing 4.5 g/L glucose) supplemented with a non-essential amino acid mixture, a selection of vitamins and 10% heat-inactivated foetal bovine serum. The cell lines were incubated at 37 °C, in a 5% CO2, 95% air atmosphere.
(§2) MRC-5 non-cancerous human embryonic lung fibroblast and human colonic adenocarcinoma cell lines (doxorubicin-sensitive Colo 205 and multidrug-resistant Colo 320 colonic adenocarcinoma cells) were used to determine the effect of compounds on cell proliferation and growth. The effects of increasing concentrations of compounds on cell proliferation and growth were tested in 96-well flat-bottomed microtitre plates. The compounds were diluted in a volume of 100 μL of medium.
(§3) The adherent human embryonal lung fibroblast cells were seeded overnight and cultured in 96-well flat-bottomed microtitre plates prior to the assay, using EMEM supplemented with 10% heat-inactivated foetal bovine serum. The density of the cells was adjusted to 6 × 10^3 cells (antiproliferative assay) or 1 × 10^4 cells (cytotoxicity assay) in 100 μL per well, the cells were seeded for 24 h at 37 °C, 5% CO2, then the medium was removed from the plates containing the cells, and the dilutions of compounds (200 µL) previously made in a separate plate were added to the cells in.
(§4) The culture plates were incubated at 37 °C for 72 h (antiproliferative test) or 24 h (cytotoxicity test); at the end of the incubation period, 20 μL of MTT (thiazolyl blue tetrazolium bromide, Sigma, St. Louis, MO, USA) solution (from a stock solution of 5 mg/mL) were added to each well. After incubation at 37 °C for 4 h, 100 μL of sodium dodecyl sulphate (SDS) (Sigma) solution (10% in 0.01 M HCI) were added to each well and the plates were further incubated at 37 °C overnight. Cell growth was determined by measuring the optical density (OD) at 540/630 nm with Multiscan EX ELISA reader (Thermo Labsystems, Cheshire, WA, USA). Inhibition of the cell growth was determined according to the formula below: Inhibition %=100−[OD sample−OD medium control/OD cell control−OD medium control]×100
(§5) Results are expressed in terms of IC50, defined as the inhibitory dose that reduces the growth of the cells exposed to the tested compounds by 50%.

[3] = tested on: MCF-7 mp53 cells; design: method as in Sturgeon et al. [2005]; details: ref Sturgeon et al. [2005]; cited from earlier work
[4] = tested on: multidrug-resistant Colo 320 colonic adenocarcinoma cells; assay: MTT antiproliferative assay (72 h), Colo 320; assay type: cell-based, human; details: Homo sapiens, COLO 320, 72 h, MTT, 72 h incubation; read-out: Antiproliferative IC50, Colo320
Protocol: (§6) Human colonic adenocarcinoma cell lines (Colo 205 doxorubicin-sensitive and Colo 320/MDR-LRP multidrug-resistant expressing ABCB1 (MDR1)-LRP), ATCC-CCL-220.1 (Colo 320) and CCL-222 (Colo 205) were purchased from LGC Promochem, Teddington, UK. The cells were cultured in RPMI 1640 medium supplemented with 10% heat-inactivated foetal bovine serum, 2 mM L-glutamine, 1 mM Na-pyruvate and 100 mM Hepes. The cell lines were incubated at 37 °C, in a 5% CO2, 95% air atmosphere. The semi-adherent human colon cancer cells were detached with Trypsin-Versene (EDTA) solution for 5 min at 37 °C.
as §2
(§7) In case of the colonic adenocarcinoma cells, the 2-fold serial dilutions of compounds were prepared in 100 μL of RPMI 1640, horizontally. The semi-adherent colonic adenocarcinoma cells were treated with Trypsin-Versene (EDTA) solution. The density of the cells was adjusted to 6 × 10^3 cells (antiproliferative assay) or 1 × 10^4 cells (cytotoxicity assay) in 100 μL of RPMI 1640 medium, and was added to each well, with the exception of the medium control wells. The final volume of the wells containing compounds and cells was 200 μL.
as §4, §5

[5] = tested on: doxorubicin-sensitive Colo 205 colonic adenocarcinoma cells; assay: MTT cytotoxicity assay (24 h), Colo 205; assay type: cell-based, human; details: Homo sapiens, COLO 205; MTT, 24 h incubation; read-out: Cytotoxicity IC50, Colo205
Protocol: as §6, §2, §7, §4, §5

[6] = tested on: MRC-5 human embryonal lung fibroblast cell line; assay: MTT antiproliferative assay (72 h), MRC-5; assay type: cell-based; details: Homo sapiens, MRC5, 72 h incubation
Protocol: as §1, §2, §3, §4, §5

[7] = tested on: multidrug-resistant Colo 320 colonic adenocarcinoma cells; assay: MTT cytotoxicity assay (24 h), Colo 320; assay type: cell-based; details: Homo sapiens, COLO 320, 24 h, 24 h incubation, read-out: Cytotoxicity IC50, Colo320
Protocol: as §6, §2, §7, §4, §5

[8] = tested on: doxorubicin-sensitive Colo 205 colonic adenocarcinoma cells; assay: MTT antiproliferative assay (72 h), Colo 205; assay type: cell-based, human; details: Homo sapiens, COLO 205, 72 h incubation, read-out: Antiproliferative IC50, Colo205
Protocol: as §6, §2, §7, §4, §5

[9] = MTT cytotoxicity assay (24 h), Colo 205; assay type: cell-based, human; details: human colonic adenocarcinoma cell lines versus MRC-5, cytotoxicity; read-out: selectivity index [SI], cytotoxicity
Protocol: as §6, §2, §7, §4, §5

[10] = tested on: Staphylococcus aureus ATCC 25923; assay: Real-time ethidium bromide accumulation assay, S. aureus ATCC 25923; assay type: cell-based; details: EB accumulation, 60 min, positive control at 25 μM
Protocol: (§8) The impact of compounds on EB accumulation was determined by the automated EB method using a CLARIOstar Plus plate reader (BMG Labtech, Aylesbury, UK). First, the bacterial strain was incubated until it reached an OD of 0.6 at 600 nm [Escherichia coli AG100 is incubated in Luria–Bertani (LB) broth and Staphylococcus aureus ATCC 25923 is incubated in tryptic soy broth (TSB)]. The culture was washed with PBS (pH 7.4) and centrifuged at 13,000 × g for 3 min, the cell pellet was re-suspended in PBS. The compounds were added at ½ MIC concentration (in case of >100 the concentration is 100 µM) to PBS containing a non-toxic concentration of EB (2 µg/mL). […] Then, the plates were placed into the CLARIOstar plate reader, and the fluorescence was monitored at excitation and emission wavelengths of 525 and 615 nm every minute for 1 h on a real-time basis. From the real-time data, the activity of the compounds, namely the relative fluorescence index (RFI) of the last time point (60 min) of the EB accumulation assay, was calculated according to the following formula: RFI=(RFtreated – RFuntreated)/RFuntreated where RFtreated is the relative fluorescence (RF) at the last time point of EB retention curve in the presence of an inhibitor, and RFuntreated is the RF at the last time point of the EB retention curve of the untreated control having the solvent control (DMSO). […]

[11] = target: T1, ABCB1 efflux pump (P-glycoprotein) (Homo sapiens, UniProt P08183); assay: Rhodamine 123 retention by flow cytometry (ABCB1 inhibition); assay type: cell-based; details: rhodamine 123, Colo 320 vs Colo 205, at 0.2 µM
T1 construct: The colonic adenocarcinoma cells (the doxorubicin-sensitive Colo 205 and the multidrug-resistant Colo 320); CCL-222 (Colo 205); host or cells: Colo 320/MDR-LRP (multidrug-resistant, overexpressing ABCB1) and Colo 205 (sensitive) human colon adenocarcinoma cells
T1 sequence (P08183 whole entry): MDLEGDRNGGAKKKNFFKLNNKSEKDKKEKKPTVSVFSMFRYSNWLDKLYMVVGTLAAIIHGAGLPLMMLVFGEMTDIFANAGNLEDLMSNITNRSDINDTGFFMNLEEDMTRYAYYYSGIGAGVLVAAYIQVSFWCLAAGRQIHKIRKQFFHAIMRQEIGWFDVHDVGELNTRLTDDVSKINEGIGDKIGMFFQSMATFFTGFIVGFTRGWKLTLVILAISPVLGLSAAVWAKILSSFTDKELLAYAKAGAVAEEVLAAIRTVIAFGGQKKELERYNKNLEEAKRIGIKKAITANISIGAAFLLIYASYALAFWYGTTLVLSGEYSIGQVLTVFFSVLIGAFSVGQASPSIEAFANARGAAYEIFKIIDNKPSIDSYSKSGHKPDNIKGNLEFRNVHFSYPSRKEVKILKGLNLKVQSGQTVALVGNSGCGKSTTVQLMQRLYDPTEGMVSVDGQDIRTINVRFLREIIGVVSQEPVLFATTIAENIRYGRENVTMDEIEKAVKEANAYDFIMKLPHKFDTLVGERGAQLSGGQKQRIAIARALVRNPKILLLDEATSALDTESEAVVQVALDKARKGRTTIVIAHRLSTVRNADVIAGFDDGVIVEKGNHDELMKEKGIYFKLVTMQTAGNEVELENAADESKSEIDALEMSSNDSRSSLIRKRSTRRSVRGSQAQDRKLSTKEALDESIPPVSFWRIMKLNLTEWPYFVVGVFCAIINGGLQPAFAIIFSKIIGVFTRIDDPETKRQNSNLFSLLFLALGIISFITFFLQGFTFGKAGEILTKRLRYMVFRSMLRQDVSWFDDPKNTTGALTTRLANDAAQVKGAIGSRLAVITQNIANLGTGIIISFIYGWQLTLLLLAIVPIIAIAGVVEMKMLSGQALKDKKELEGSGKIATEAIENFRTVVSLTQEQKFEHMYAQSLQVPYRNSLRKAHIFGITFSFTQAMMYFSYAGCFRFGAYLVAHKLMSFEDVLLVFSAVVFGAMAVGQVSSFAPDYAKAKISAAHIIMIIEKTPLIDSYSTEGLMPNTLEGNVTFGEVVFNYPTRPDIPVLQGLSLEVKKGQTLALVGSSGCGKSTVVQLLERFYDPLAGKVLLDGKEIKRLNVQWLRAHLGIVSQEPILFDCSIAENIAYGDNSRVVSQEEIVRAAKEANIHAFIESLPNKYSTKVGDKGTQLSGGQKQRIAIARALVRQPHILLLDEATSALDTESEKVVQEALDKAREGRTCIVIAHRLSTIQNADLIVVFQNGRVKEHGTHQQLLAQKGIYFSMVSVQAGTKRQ
Protocol: This method is a fluorescence-based detection system which uses tariquidar as a reference inhibitor of the ABCB1 efflux pump (EP). The colonic adenocarcinoma cells (the doxorubicin-sensitive Colo 205 and the multidrug-resistant Colo 320) were adjusted to a density of 2 × 10^6/mL, re-suspended in serum-free RPMI 1640 medium and distributed in 0.5 mL aliquots into Eppendorf centrifuge tubes. The compounds were added at different concentrations (2 μM and 20 μM final concentrations, respectively), and the samples were incubated for 10 min at room temperature. […] The fluorescence intensity of the cell population was measured with a Partec CyFlow flow cytometer (Partec, Munster, Germany). […] The mean fluorescence intensity (%) was calculated for the treated MDR Colo 320 and sensitive Colo 205 cell lines as compared to the untreated cells. The fluorescence activity ratio (FAR) was calculated based on the following equation which relates the measured fluorescence values: FAR=Colo 320treated/Colo 320control/Colo 205treated/Colo 205control
The fluorescence dye, rhodamine 123 was used as a marker of the ABCB1 transporter activity to explore the potential inhibitory activity of the isolated compounds. Inside cells without overexpressing the P-glycoprotein, the rhodamine 123 accumulates and resulting in an increase in fluorescence intensity (λex = 490/λem = 525 nm). […]

[12] = tested on: Escherichia coli AG100; details: EB accumulation, 60 min, positive control at 50 μM
Protocol: as §8

For `C=C1C(=O)O[C@@H]2[C@H]1CC[C@H](C)[C@@H]1CCC(=O)O[C@@]21C` [Compound 1, psilostachyin C], the Type of interaction ([1]; starting concentration 50 µM, ratio 11.6:1) was “Strong antagonism”, the Type of interaction ([1]; starting concentration 50 µM, ratio 23.2:1) was “Antagonism” and the Type of interaction ([1]; starting concentration 50 µM, ratio 46.4:1) was “Slight antagonism”. For the same compound, the Type of interaction ([1]; starting concentration 50 µM, ratio 92.8:1) was “Antagonism”, the Type of interaction ([1]; starting concentration 50 µM, ratio 185:1) was “Moderate antagonism” and the Type of interaction ([1]; starting concentration 50 µM, ratio compound:doxorubicin 5.8:1) was “Strong antagonism”. The IC50 at 24 h [2] was 52.7 ± 2.62 µM, the “effect on mitosis of MCF-7 mp53 cells (G2 checkpoint inhibitors)” value [3] was “blocked MCF-7 mp53 cells in mitosis” and the IC50 [4] was 14.7 ± 0.82 µM. The IC50 [5] was 26.6 ± 0.48 µM, the IC50 [6] was 35.1 ± 4.03 µM and the IC50 [7] was 28.71 ± 0.11 µM. It also gave an IC50 [8] of 15.6 ± 0.83 µM.
In the case of `CC(=O)O[C@@H]1C[C@H]2[C@@H](C)CC[C@@H]3[C@@H](OC(=O)[C@@H]3C)[C@]2(C)C1=O` [Compound 2, acetoxydihydrodamsin], the Type of interaction ([1]; starting concentration 15 µM, ratio 1.74:1) is reported as “Antagonism”, the Type of interaction ([1]; starting concentration 15 µM, ratio 3.48:1) is reported as “Antagonism” and the Type of interaction ([1]; starting concentration 15 µM, ratio 6.96:1) is reported as “Antagonism”. For the same compound, the Type of interaction ([1]; starting concentration 15 µM, ratio 13.92.1) was “Antagonism”, the Type of interaction ([1]; starting concentration 15 µM, ratio 27.84:1) was “Moderate antagonism” and the Type of interaction ([1]; starting concentration 15 µM, ratio 55.68:1) was “Moderate antagonism”. For the same compound, the IC50 at 24 h [2] was 23.8 ± 1.06 µM, the IC50 [4] was 3.67 ± 0.35 µM and the selectivity ratio at 24 h [9] was 3.11. It also gave an IC50 [5] of 7.64 ± 0.37 µM, an IC50 [6] of 11 ± 0.31 µM and an IC50 [7] of 10.8 ± 0.22 µM. For the same compound, the IC50 [8] was 5.14 ± 0.55 µM.
With `COC(=O)[C@H]1[C@H]2C[C@@H]3c4[nH]c5cc(OC)ccc5c4CCN3C[C@H]2C[C@@H](OC(=O)c2cc(OC)c(OC)c(OC)c2)[C@@H]1OC` [reserpine] the “RFI (relative fluorescence index)” value [10] was 2.77.
With `COc1cc2c(cc1OC)CN(CCc1ccc(NC(=O)c3cc(OC)c(OC)cc3NC(=O)c3cnc4ccccc4c3)cc1)CC2` [tariquidar] the “FAR value (fluorescence activity ratio)” value [11] was 6.6.
With “carbonyl cyanide m-chlorophenylhydrazine [CCCP]” the “RFI (relative fluorescence index)” value [12] was 1.34.

From publication PMC9377253, “Antiproliferative and cytotoxic effects of sesquiterpene lactones isolated from Ambrosia artemisiifolia on human adenocarcinoma and normal cell lines” (Pharmaceutical Biology, 2022)
